# Assay results reported in PubChem BioAssay (NCI).
# Values joined by “and” are separate entries in the source; they are usually repeats but may differ in a detail not shown here. Equal values may be shown once.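 Values below derive from 48-hour exposures of cells grown in 96-well plates, with endpoints linearly interpolated between the two concentrations bracketing the appropriate inhibition level. GI50 = concentration required for 50% inhibition of growth. At the TGI there is no net growth.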
# What was measured:
# Experiment in all cases: inhibition of tumour cell growth, NCI panel, 48 h
# [1] = system: LOX IMVI melanoma
# [2] = system: COLO 205 colon
# [3] = system: SR leukemia
# [4] = system: UACC-62 melanoma
# [5] = system: DMS 273 small cell lung
# [6] = system: UACC-257 melanoma
# [7] = system: A498 renal
# [8] = system: KM20L2 colon
# [9] = system: SF-268 CNS
# [10] = system: NCI/ADR-RES ovarian
SMILES,TGI [1] [µM],TGI [2] [µM],TGI [3] [µM],TGI [4],TGI [5],TGI [6] [µM],TGI [7],TGI [8],TGI [9],GI50 [1],GI50 [2],GI50 [4],GI50 [5] [µM],GI50 [6],GI50 [7] [µM],GI50 [8] [µM],GI50 [9],GI50 [3],GI50 [10],TGI [10]
Clc1ccc2nc(CCSCCc3nc4ccc(Cl)cc4[nH]3)[nH]c2c1,40.4,29,1.14,19.2 µM,29 µM,26.3,–,–,–,–,–,–,–,–,–,–,–,–,–,–
COc1ccc2c(c1)[n+]([O-])c(-c1nc3ccccc3s1)c(N)[n+]2[O-],–,> 100,> 100,–,> 100 µM,> 100,> 100 µM,> 100 µM,–,–,–,–,–,–,–,–,–,–,–,–
CC12CC3CC(C)(C1)CC(N=[N+]=[N-])(C3)C2,> 100,> 100,> 100,> 100 µM,> 100 µM,> 100,> 100 µM,–,> 100 µM,–,–,–,–,–,–,–,–,–,–,–
CN=S(=O)(C[C@]1(O)CC2OC1C1OC(C)(C)OC21)c1ccccc1 (stereo partly specified),–,> 100,–,> 100 µM,> 100 µM,> 100,> 100 µM,> 100 µM,> 100 µM,–,–,–,–,–,–,–,–,–,–,–
O=C(C=Nc1ccccc1C(=O)[O-])c1cccs1.O=C(C=Nc1ccccc1C(=O)[O-])c1cccs1.[Cu+2],> 100,> 100,> 100,> 100 µM,–,> 100,> 100 µM,> 100 µM,> 100 µM,–,–,–,–,–,–,–,–,–,–,–
CCCCCCCCCCCC(=O)OCC1OC(n2cc(F)c(=O)[nH]c2=O)C(N)C(O)C1O (stereo unspecified),–,> 100,> 100,> 100 µM,> 100 µM,> 100,> 100 µM,> 100 µM,> 100 µM,–,–,–,–,–,–,–,–,–,–,–
O=C(CC(=O)C(F)(F)F)c1csc2ccccc12,> 100,> 100,50.1,> 100 µM,> 100 µM,> 100,–,> 100 µM,> 100 µM,–,–,–,–,–,–,–,–,–,–,–
COC(=O)C1=CC2OC13CC1CCC3(C2=O)C1(C)C (stereo unspecified),–,29.8,–,30.6 µM,24.6 µM,24.1,49 µM,27.1 µM,23.2 µM,–,–,–,–,–,–,–,–,–,–,–
CCC[CH2][Sn]([CH2]CCC)([S]C1=NCCS1)[S]C1=NCCS1,0.555,1.5,–,0.814 µM,2.27 µM,1.44,1.31 µM,2.88 µM,0.908 µM,0.186 µM,0.331 µM,0.177 µM,0.705,0.323 µM,0.507,1.35,0.254 µM,–,–,–
Nc1ccn([C@@H]2C=C(CO)[C@@H](O)[C@H]2O)c(=O)n1,–,–,–,135 µM and 224 µM,218 µM and 62.5 µM,470,–,500 µM and > 625 µM,500 µM and > 625 µM,–,0.0295 µM,–,–,2.97 µM and 1.12 µM,0.242,–,–,0.05 µM,–,–
C/C(=C\c1c[nH]c2ccccc12)[N+](=O)[O-],4.86,17.4,4.25,15.9 µM,–,17.1,29.6 µM,–,19.2 µM,1.89 µM,5.06 µM,4.04 µM,–,4.89 µM,14.9,–,4.16 µM,1.15 µM,6.23 µM,19.7 µM
COc1cccc2c1c1nc3cc(C)c(C)cc3nc1n2CCN(C)C,8.7,3.31,8.7,3.37 µM,–,4.74,1.9 µM,–,7.45 µM,1.04 µM,0.767 µM,1.7 µM,–,1.9 µM,0.533,–,2.13 µM,0.452 µM,1.22 µM,13.3 µM
Cc1cc(C)n(-c2c(O)ccc(O)c2-n2nc(C)cc2C)n1,> 100,> 100,–,> 100 µM,> 100 µM,–,> 100 µM,> 100 µM,> 100 µM,–,–,–,–,–,–,–,–,–,–,–
CC(=O)Nc1ccc(/C=C/C(=O)c2sc(C(N)=S)nc2C)cc1,> 100,> 100,–,> 100 µM,> 100 µM,> 100,> 100 µM,> 100 µM,> 100 µM,–,–,–,–,–,–,–,–,–,–,–
Cn1c2cccc3nnc4cccc(c4c32)n1C,> 100,> 100,–,> 100 µM,> 100 µM,> 100,> 100 µM,> 100 µM,> 100 µM,–,–,–,–,–,–,–,–,–,–,–
Cn1cc(C2=C(c3c4n(c5ccccc35)CCC(CN)CC4)C(=O)NC2=O)c2ccccc21 (stereo unspecified),11.4,7.45,16.2,7.28 µM,–,7.57,7.55 µM,–,7.7 µM,5.26 µM,3.49 µM,3.65 µM,–,3.89 µM,3.96,–,4.02 µM,5.14 µM,> 25 µM,> 25 µM
COC(=O)C1=CC2OC1(C)C1(CC1)C2=O (stereo unspecified),28.5,33.5,34.6,–,–,31,–,36.6 µM,43.3 µM,–,–,–,–,–,–,–,–,–,–,–
COC(=O)Nc1nc2ccc(Oc3ccc(NC(=O)Nc4cccc(Cl)c4)cc3)cc2[nH]1,6.6,3.07,> 14.3,4.78 µM,–,19.5,13.8 µM,–,15.3 µM,1.42 µM,0.916 µM,0.712 µM,–,1.7 µM,1.64,–,2.43 µM,0.144 µM,5.17 µM,> 25 µM
O=C1c2ccccc2C(=O)c2nc(-c3ccccc3)c(-c3ccccc3)nc21,> 56.1,> 100,–,> 100 µM,> 100 µM,–,> 93.6 µM,> 100 µM,> 100 µM,–,–,–,–,–,–,–,–,–,–,–

SMILES,TGI [1] [µM],TGI [2] [µM],TGI [3] [µM],TGI [4],TGI [5],TGI [6] [µM],TGI [7],TGI [8],TGI [9],GI50 [1],GI50 [2],GI50 [4],GI50 [5] [µM],GI50 [6],GI50 [7] [µM],GI50 [8] [µM],GI50 [9],GI50 [3],GI50 [10],TGI [10]
COC(=O)C(=O)C(C(=O)C(=O)Nc1cc([N+](=O)[O-])ccc1[N+](=O)[O-])c1nc2ccc(C(=O)c3ccccc3)cc2[nH]c1=O (stereo unspecified),> 100,> 100,60.2,–,> 100 µM,> 100,63.4 µM,–,> 100 µM,–,–,–,–,–,–,–,–,–,–,–
O=C(/C=C\Sc1nccc(C(F)(F)F)n1)c1ccc(Br)cc1,27.2,36.5,26.3,60.7 µM,–,> 100,> 100 µM,–,> 100 µM,13.7 µM,18.6 µM,23.6 µM,–,56.4 µM,> 100,–,33.2 µM,11.1 µM,20.2 µM,52.7 µM
COc1cc(C(=O)n2nc(N3CCN(C)CC3)c3cc(N)ccc32)cc(OC)c1OC,17.1,37.3,53.3,17.7 µM,–,> 100,7.12 µM,–,88.9 µM,4.23 µM,15.5 µM,2.78 µM,–,28.5 µM,2.82,–,4.19 µM,3.64 µM,4.2 µM,> 100 µM
CCC(=C(c1ccc(OCc2ccccc2)cc1)c1ccc(OCc2ccccc2)cc1)c1ccc(OC)cc1,> 100,> 100,> 100,> 100 µM,> 100 µM,–,–,> 100 µM,> 100 µM,–,–,–,–,–,–,–,–,–,–,–
O=C(O)CCC1CCC(c2cc(F)ccc2F)(S(=O)(=O)c2ccc(Cl)cc2)CC1 (stereo unspecified),> 100,> 100,> 100,> 100 µM,–,> 100,67.1 µM and > 100 µM,–,> 100 µM,40.3 µM and > 66.5 µM,42.3 µM and > 100 µM,28.2 µM and 97.1 µM,–,44 µM and > 100 µM,–,–,48.3 µM and > 100 µM,25.5 µM and > 47.3 µM,25.8 µM and > 74.3 µM,99.7 µM and > 100 µM
[N-]=[N+]=CC(=O)OCC(N)C(=O)O (stereo unspecified),> 100,> 100,> 100,> 100 µM,–,> 100,> 100 µM,–,> 100 µM,0.485 µM,0.778 µM,2.06 µM,–,3.61 µM,57.6,–,1.89 µM,0.638 µM,3.2 µM,> 100 µM
CC(C)=CCC/C(C)=C/CC/C(=C/COP(=O)(OCc1ccc([N+](=O)[O-])o1)N(C)CCCCCl)C(C)(C)C (stereo unspecified),4.68,53.1,> 100,23.5 µM,–,27.6,2.16 µM,–,19.3 µM,1.28 µM,15.9 µM,9.21 µM,–,10.8 µM,0.125,–,3.69 µM,0.128 µM,16.3 µM,38.5 µM
COc1ccc(OC)c2cc(C3(C)SCCCS3)ccc12,> 100,> 100,–,> 100 µM,> 100 µM,> 100,> 100 µM,> 100 µM,> 100 µM,–,–,–,–,–,–,–,–,–,–,–
O=C1/C(=C/C(Cl)=C/c2ccccc2)SC(=S)N1CCc1ccc(O)cc1,2.74,7.69,> 100,3.04 µM,–,3.61,3.51 µM,–,10.3 µM,1.27 µM,2.27 µM,1.33 µM,–,1.39 µM,1.86,–,2.6 µM,0.86 µM,2.16 µM,> 100 µM
CC(=O)OCC1OC(S[As](C)C)C(OC(C)=O)C1OC(C)=O (stereo unspecified),0.991,2.66,0.29,1.52 µM,–,7.06,3.06 µM,–,7.53 µM,0.257 µM,0.176 µM,0.357 µM,–,1.57 µM,0.432,–,1.31 µM,0.025 µM,0.259 µM,2.48 µM
CCOC(=O)c1c(Cl)c2c(n1Cc1cc(OC)cc(OC)c1)-c1oncc1CCC2,> 100,1.49,> 100,> 100 µM,–,> 100,0.605 µM,–,> 100 µM,0.709 µM,0.301 µM,0.193 µM,–,0.92 µM,0.0797,–,1.65 µM,0.121 µM,0.227 µM,> 61.6 µM
COC(=O)c1c2c(c(C)[n+]([O-])c1C)C(=O)C(NCc1ccc(F)c(F)c1)=CC2=O,6.76,2.1,6.24,3.35 µM,–,2.96,5.65 µM,–,7.47 µM,1.98 µM,0.673 µM,1.53 µM,–,1.13 µM,1.34,–,2.31 µM,1.62 µM,2.3 µM,6.86 µM
COc1ccc(F)cc1C(=O)c1cnc(NC2CCN(S(C)(=O)=O)CC2)nc1N,> 25,5.22,> 14.8,8.95 µM,–,15.5,8.06 µM,–,18.1 µM,2.09 µM,1.25 µM,2.75 µM,–,4.24 µM,3.22,–,4.58 µM,0.885 µM,6.26 µM,> 25 µM
Cc1ccc(C(=O)NC2CCCCC2)cc1-c1ccc(C(=O)NCC2CC2)cc1,> 25,> 25,> 25,> 25 µM,–,> 25,> 25 µM,–,> 25 µM,> 25 µM,> 25 µM,17 µM,–,> 25 µM,8.51,–,> 25 µM,> 25 µM,24.6 µM,> 25 µM
O=C(O)CC1(C(=O)O)CCCCC1,> 100,> 100,> 100,> 100 µM,–,> 100,> 100 µM,–,> 100 µM,–,–,–,–,–,–,–,–,–,–,> 100 µM
Cc1ccc(C2=NO[C@@H]3C(=O)N(c4ccc(Cc5ccc(N6C(=O)[C@H]7C(c8ccc(C)cc8)=NO[C@H]7C6=O)cc5)cc4)C(=O)[C@H]23)cc1,> 100,> 100,–,> 100 µM,> 100 µM,> 100,> 100 µM,> 100 µM,> 100 µM,–,–,–,–,–,–,–,–,–,–,–
O=C(NCC#CCO)C(F)(F)F,> 100,–,> 100,> 100 µM,> 100 µM,> 100,> 100 µM,–,> 100 µM,–,–,–,–,–,–,–,–,–,–,–
O=C(CC1(O)C(=O)Nc2c(Cl)cc(Cl)cc21)c1ccc2ccccc2c1 (stereo unspecified),24.3,21.6,–,14.6 µM,15.2 µM,27.1,24.8 µM,11.4 µM,31.8 µM,–,–,–,–,–,–,–,–,–,–,–
CO[C@H](C(=O)N[C@@H](CCCCNC(=O)OCc1ccccc1)C(=O)OC(C)(C)C)[C@@H]1Cc2cc3cc(OC4CC(OC5CC(O)C(O)C(C)O5)C(O)C(C)O4)c(C)c(O)c3c(O)c2C(=O)[C@H]1OC1CC(OC2CC(OC3CC(C)(O)C(O)C(C)O3)C(O)C(C)O2)C(O)C(C)O1 (stereo partly specified),2.4,3.63,> 10,1.7 µM,–,4.01,2.03 µM,–,2.03 µM,0.434 µM,0.689 µM,0.369 µM,–,0.812 µM,0.64,–,0.624 µM,0.319 µM,–,> 10 µM
